# Like-named read-outs stand apart in the source and are kept apart here.
# What was measured:
# [1] = cited from earlier work
# HEK293 cells = experiment: Restoration of cellular energy homeostasis following sodium azide treatment; type: cell-based, human; conditions: azide 20 minutes, then compound or control media 20 minutes; FIG. 12
# [2] = system: HEK cells expressing SMVT; experiment: Effect of treatment on the creatine kinase system (intracellular creatine phosphate, ATP, creatine); type: cell-based, human; conditions: 100 μM, relative to buffer
# [3] = healthy volunteers, oral creatine administration; cited from earlier work
# H9C2 cells = type: cell-based, rat
# [4] = cited from earlier work; remark: listed apart in the source
# [5] = animals fed a diet containing up to 1%; cited from earlier work
SMILES,Duration of increases in tissue creatine phosphate levels ([1]; following oral creatine supplementation) [days],Overall increase in creatine phosphate levels by creatine supplementation ([1]; supplementation typically takes weeks) [%],Reversal of azide-induced ATP depletion (HEK293 cells),"Percent Increase in Intracellular Concentrations, ATP ([2]; After 1 Hour) [%]","Percent Increase in Intracellular Concentrations, Creatine ([2]; After 1 Hour) [%]","Percent Increase in Intracellular Concentrations, Creatine Phosphate ([2]; After 1 Hour) [%]","Percent Increase in Intracellular Concentrations, ATP ([2]; After 3 Hours) [%]","Percent Increase in Intracellular Concentrations, Creatine ([2]; After 3 Hours) [%]","Percent Increase in Intracellular Concentrations, Creatine Phosphate ([2]; After 3 Hours) [%]",Increase of cerebral creatine phosphate [3],Protection against 3-NP toxicity (ATP luminescence) (H9C2 cells),"Adverse side effects ([4]; patients with cardiac diseases, intravenous injection up to 8 gm/day)",Adverse effects [5],"Adverse side effects ([4]; athletes and body builders, 2-3 gm/day)"
"CN(CC(=O)O)C(=N)N [Creatine, creatine]",> 14,< 50,not protective,5,8,26,−5,40,30,about 10%,not,–,–,–
"CN(CC(=O)O)C(=N)NP(=O)(O)O [Creatine Phosphate, creatine phosphate]",–,–,–,27,−6,15,10,0,5,–,–,without adverse side effects,–,–
NC1=NCCN1CC(=O)O [cyclocreatine],–,–,–,–,–,–,–,–,–,–,–,–,do not exhibit adverse effects,–
CN(CC(=O)O)C(=N)N.O [creatine monohydrate],–,–,–,–,–,–,–,–,–,–,–,–,–,without adverse side effects

# Source: patent publication US20070281909A1, “Creatine phosphate prodrugs, compositions and uses thereof” (XenoPort, Inc., priority 2006, published 2007)
